Assay results reported in patent US7314969B2, “Methods and compositions for the introduction of molecules into cells” (priority 1999, dated 2008).
Read-outs that look alike come from different tables or passages of the source.

Assays:
[1] = test system: embryogenic soybean callus; assay: Effect of media constituents on growth of embryogenic soybean callus in B1-30; type: cell-based
Source text: In another embodiment of the present invention, a novel culture media may be used to stimulate high frequency production of embryogenic soybean callus. Improvement varied with the genotype being cultured. […] The inclusion of one or more of four media constituents, coconut water, myoinositol, phytic acid and inorganic phosphate concentration, enhanced embryogenic callus production and allowed significant improvements to be made to transgenic clone production in terms of number of clones recovered, embryo morphology, and reduction in the time needed to identify the clones and regenerate plants from them. The medium of Ranch et al., 1985 (referred to herein as B1-30) was used as the basal medium. An example of the medium of the present invention is B1-30 3Co5My0.25PA0.5K (footnote, Table 5). Although this medium is a preferred emobodiment of growth medium, other conventional media may be utilized in the practice of the invention.
Coconut water has been included in tissue culture media for over 50 years. Coconut water is liquid taken from coconuts to promote growth in plant tissue cultures. It is deproteinized then filter-sterilized. An example is Sigma Biosciences' Cat. No. C5915. […] Most commonly coconut water is used at concentrations of between 5% and 10% by volume of the final culture medium. The role of coconut water in stimulating the growth of embryogenic callus in soybean was investigated and it was discovered that its effect on cotyledon explants routinely used to initiate embryogenic callus of soybean was detrimental when tested at these concentrations.
One key component of coconut water is myoinositol (Pollard et al., 1961). In an attempt to improve the growth of embryogenic soybean callus with components of coconut water, it was discovered that myoinositol was effective in this regard. Myoinositol has been included in tissue culture media for a variety of plant species. Although apparently not required for all species (Halperin, 1966), it is routinely included in media such as the widely used Murashige and Skoog formulation (Murashige and Skoog, 1962) at a concentration of 100 mg/l. It is at this concentration that it has been included in media used for the culture of embryogenic callus of soybean (e.g., see Ranch et al., 1985).
There are no known reports of the inclusion of phytic acid in culture media for any plant species. Soybean seeds are rich in natural chelating agents, the most prominent of which is phytic acid (Gibson and Ullah, 1990). Substantial amounts of phosphate are stored in seeds in the form of phytate (Raboy, 1990). It is possible that the capacity of phytic acid to sequester inorganic phosphate has a significant impact upon C partitioning into either starch or sucrose. At 1 gm/l in B1-30, embryogenic callus of a range of genotypes exuded starch, possibly confirming the impact of phytic acid on C partitioning. […] Best results over many passages were obtained with the addition of about 5 mg/l to about 250 mg/l phytic acid to the culture medium depending on the genotype.
Inorganic phosphorous in the form of KH2PO4, in excess of the amount conventionally used, was added to the base medium (B1-30) along with myoinositol and coconut water. This medium was tested against B1-30 supplemented with phytic acid in addition to KH2PO4, myoinositol and coconut water.

[2] = test system: DH5 cells; type: cell-based, E. coli; details: 10 mg/l tetracycline
Procedure: One microgram of supercoiled pSB1 was added to 1.0 ml of sterile ddH2O and briefly vortexed. […] For a control SB1 plasmid was used without the addition of any cationic polypeptides. Transformation of bacteria was carried out as described in Example 17. Briefly, subcloning efficient DH5 cells from Invitrogen were transformed. Ten microliters of cells were mixed with 0.1 ml of YP medium (10 g/L peptone, 5 g/L yeast extract, and 5 g/L NaCl). The cells were pipeted in the center of a YP plate (same as above plus 15.0 g/L agar) and allowed to dry in a laminar flow hood. The pSB1 plus or minus cationic polypeptides was introduced into the cells using an aerosol beam injector as described in parent U.S. patent application Ser. No. 09/724,265. After about 1 hour of incubation at 37° C., the aerosol beamed cells plus the YP medium were cut out as a slab and placed on YP medium with 10 mg/1 tetracycline. Plasmid SB1 harbors resistance to the antibiotic tetracycline. The cells were grown overnight at 37° C. and then evaluated for the presence of colonies that were growing on the medium. If the plasmid pSB1 were sheared it would not replicate in the cell, thus no antibiotic resistant colony would have formed, however, if the plasmid was not sheared it could replicate once inside the cell and an antibiotic colony would have appeared.

[3] = test system: bacterial cells; type: cell-based, E. coli
Procedure: Transformation of bacteria using the method of the invention was accomplished as follows: competent E. coli DH5 alpha (Gibco BRL) or HB101 cells were thawed on ice and 5 to 50 microliters were combined with 0.2 ml LB broth. The mixture was pipetted to the center of a plate of LB agar (1.5%) containing 100 mg/l ampicillin and allowed to dry. Aerosol beam parameters were the same as those described previously (Example 1) except as noted in this Example. A pUC-derived plasmid encoding for resistance to the antibiotic ampicillin was delivered to the bacterial cells, as is known in the art. The concentration of DNA ranged from about 1.0 to 1000 μg/ml in 10 mM Tris (pH7.0) or a carbohydrate molecule, such as 1 g/l sucrose. The nebulizing pressure was from about 10 to about 40 psi, preferably 30 to 40 psi. The entrainment temperature was maintained in a given experiment and ranged between experiments from about 24° to about 55° C., and was preferably maintained at about 42° to about 55° C. and most preferably at about 55° C. Various sample flow rates were tested ranging from about 0.25 ml/hour to about 2.0 ml/hour (about 4 μl/min. to about 33 μl/min.). Preferably the flow rate was about 8.0 μl/minute to about 17.0 μl/minute.
Nucleic acid and protein were simultaneously delivered into bacterial cells. Preparation of bacteria and parameters for the aerosol beam apparatus were the same as described previously for delivery of DNA into bacteria (Example 12). The same buffer, plasmid, and plasmid concentration was used as described in the transformation of bacteria. Ribonuclease A (RNASE A) (Sigma cat. no. R6513) was added to the DNA sample at a final concentration of 2.5 μg/ml.
As a control, RNASE A at the same concentration used for beaming was pipetted on the cells after the cells were beamed with DNA only. […] To verify that the RNASE A was not degrading the plasmid, the plasmid treated with RNASE A was run on a standard 1% agarose gel. After staining the DNA with ethidium bromide, the DNA appeared intact and no degradation was evident. […]

[4] = 1 microgram pSB1 in 1.0 ml plus 1.0 ul of 2.0 ug/ul polyamine
[5] = 1 microgram pSB1 in 1.0 ml plus 2.0 ul of 20 ug/ul cationic polypeptide

In the case of `O=P([O-])(O)O.[K+]` [KH2PO4], the “effect on embryogenic soybean callus” value ([1]; 500 and 1000 mg/l added to B1-30 with myoinositol and coconut water, with and without phytic acid) is reported as “Beneficial effects”.

In the case of `O[C@H]1[C@H](O)[C@@H](O)[C@H](O)[C@@H](O)[C@H]1O` [myoinositol], the “effect on growth of embryogenic soybean callus” value ([1]; up to 10 g/l, alone or in combination with coconut water) is reported as “pronounced and beneficial effect”.

With `O=P(O)(O)O[C@H]1[C@H](OP(=O)(O)O)[C@@H](OP(=O)(O)O)[C@H](OP(=O)(O)O)[C@@H](OP(=O)(O)O)[C@H]1OP(=O)(O)O` [phytic acid, inositolhexaphosphoric acid] the “rate of growth of embryogenic callus” value ([1]; 1, 5, 10, 50, 100, 250, 500 and 1000 mg/l in B1-30, initial culture passage and/or maintenance as stock culture) was “significantly increased”, the “growth of soybean callus after initial starch exudation” value ([1]; 1 gm/l in B1-30, range of genotypes) was “grew very vigorously” and the “effect on embryogenic callus” value ([1]; 3000 mg/l, callus browned and died) was “clear detrimental effect”.

For `NCCCCNCCCN` [spermidine], the “transformed colonies growing per plate” value [2, 4] was “about 500 colonies per plate”.

For `NCCCNCCCCNCCCN` [spermine], the “transformed colonies growing per plate” value [2, 4] was “about 500 colonies per plate”.

Poly-L-Lysine was tested, and the “transformed colonies growing per plate” value [2, 5] was “about 500 colonies per plate”.

Poly-L-Ornithine was tested, and the “transformed colonies growing per plate” value [2, 5] was “about 500 colonies per plate”.

B1: RNASE A: Ribonuclease A (Sigma cat. no. R6513) (protein, UniProt P61823 27-150, looked up)
Ribonuclease pancreatic: KETAAAKFERQHMDSSTSAASSSNYCNQMMKSRNLTKDRCKPVNTFVHESLADVQAVCSQKNVACKNGQTNCYQSYSTMSITDCRETGSSKYPNCAYKTTQANKHIIVACEGNPYVPVHFDASV
B1 was tested, and the “colonies on medium containing ampicillin” value ([3]; 2.5 μg/ml beamed together with DNA) was “no colonies were observed” and the “colonies on medium containing ampicillin” value ([3]; same concentration pipetted on the cells after beaming with DNA only) was “transformed colonies grew”.

B2: inactivated RNASE A: RNASE A inactivated with diethylpyrocarbonate (DEP) (protein, UniProt P61823 27-150, looked up)
Ribonuclease pancreatic: B1 Ribonuclease pancreatic
modifications: inactivated with diethylpyrocarbonate
In the case of B2, the transformation of bacteria ([3]; RNASE A inactivated with diethylpyrocarbonate, beamed with DNA) is reported as “normal transformation of bacteria”.
